Experimental findings from article PMC12301034, “Design and Synthesis of Boronic Chalcones with Dual Anticancer and Anti-Inflammatory Activity” (Molecules, 2025) are described below.

Data set [1] in a line: Parallel artificial membrane permeability assay (PAMPA). In kind it is in vitro ADME. The method, then:
The parallel artificial membrane permeability assay (PAMPA) was performed using a 96-well pre-coated PAMPA plate system (Corning, Bedford, MA, USA). Solutions of test compounds and controls [metoprolol (Sigma-Aldrich, St. Louis, MO, USA) and nadolol (Sigma-Aldrich, St. Louis, MO, USA)] were prepared by diluting 10 mM stock solutions in DMSO with phosphate-buffered saline (PBS) at pH 6.5 to obtain a final concentration of 10 μM (final DMSO concentration ≤ 1%). The donor compartment was loaded with 300 μL of the prepared compound solutions, while the acceptor compartment received 200 μL of PBS pH 7.4. The plate was then assembled, and the system was incubated at 37 °C, with shaking at 100 rpm for 5 h. Samples of the initial donor solution (T0) were collected (10 μL) and transferred to an analysis plate. A quenching solution [10% water and 90% methanol: acetonitrile (50:50) + 50 nM tolbutamide (Sigma-Aldrich, St. Louis, MO, USA) as internal standard] was added (300 μL), along with 60 μL of PBS buffer pH 6.5. The analysis plate was stored at −20 °C. At the end of the incubation period, samples were collected from the donor and acceptor compartments and added to the analysis plate, following the same quenching procedure. The final concentrations of the compounds in the donor, acceptor, and T0 wells were quantified by an LCMS-8045 system (Shimazu, Kyoto, Japan). […]
(In general: PAMPA measures passive passage across an artificial lipid membrane.)

The test system of data set [2] is IL-8. As to the kind of experiment: Anti-inflammatory assay, IL-8 in LPS-stimulated THP-1 cells (CBA). In kind it is cell-based, human. Conditions: 2 and 4 µg/mL, 24 h. The method, then:
(§1) For this assay, THP-1 (BCRJ cód. 0234) cells were cultured in Roswell Park Memorial Institute (RPMI-1640, Sigma-Aldrich; Saint Louis, MO, USA) media supplemented with 2 mM L-glutamine, 1 mM sodium pyruvate, 1.50 g/L of sodium bicarbonate, and 10% fetal bovine serum. For obtaining Macrophage-like cells, 250,000 cells per well were plated in a 24-well cell culture plate. A total of 20 ng/mL of Forbol 12-miristato-13-acetato (PMA) was added to each well, and the cells were incubated for 48 h at 37 °C with 5% CO2. After the 48 h, the wells were washed with 1X PBS, and fresh RPMI-1640 media was added. The cells were then incubated for 24 h at 37 °C and 5% CO2. For the cell’s stimulations, after the 24 h, the well was washed with PBS and fresh RPMI1640 media without fetal bovine serum added. For the positive controls of the assay, 3 wells were stimulated with LPS (1 ng/µL) diluted in the same volume and media used for the drugs stimulation. Two different concentrations (2 and 4 µg/mL) were evaluated for each molecule, which were determined to be non-cytotoxic through a cell viability assay. After a 24 h period, the supernatant was removed and used in the cytokine quantification assay. A kit for inflammatory cytokines, BD® Cytometric Bead Array CBA Human Inflammatory, was employed for this assay, containing the following human cytokines: IL-8, IL-1β, IL-6, and TNF. […]

For data set [3], the system named is IL-1β. Put plainly: Anti-inflammatory assay, IL-1β in LPS-stimulated THP-1 cells (CBA). In kind it is cell-based, human. To be noted: 2 and 4 µg/mL, 24 h. The method, then:
as §1

A short description of data set [4]: Partition coefficient (Log P), OECD 117 HPLC method.
Data set [5] deals with HCT116 p53^−/− cells. As to the kind of experiment: SRB cytotoxicity assay on HCT116 p53-/- cells. Conditions: Homo sapiens, HCT-116, 48 h of treatment. In kind it is cell-based, human. The source says:
The SCC-25 (ATCC® CRL-1628™), Detroit-562 (ATCC® CCL-138™), and THP-1 (ATCC® TIB-202™) cells were purchased from Rio de Janeiro Cell Bank (Duque de Caxias, Brazil), and NOK-si was kindly provided by Prof. Carlos Rossa from the School of Dentistry—UNESP. All the cells were cultivated according to standard conditions. Human colorectal adenocarcinoma HCT116 cell lines (ATCC® CCL-247™) expressing p53 and its p53-null isogenic derivative (HCT116 p53^−/−) were provided by B. Vogelstein (The Johns Hopkins Kimmel Cancer Center, Baltimore, MD, USA).
HCT p53^+/+ and HCT p53^−/− cell lines were seeded in 96-well plates, with a concentration of 5000 cells/well, and allowed to adhere overnight. Afterwards, they were treated with serial dilutions of the compounds for an additional 48 h (compounds were prepared at 30 mM, in DMSO, and tested with a starting concentration of 50μM and 15 μM). Cells passed then through a series of essential steps (fixation with 10% trichloroacetic acid, for 1 h at 4 °C; staining with 0.4% sulforhodamine B (SRB); wash with 1% acetic acid; and solubilization with 10 mM Tris-Base); subsequently, absorbance was measured at 510 nm in a microplate reader (Biotek Instruments Inc., Synergy, MX, USA). IC50 values were determined using GraphPad Prism software, Version 7.0 (La Jolla, CA, USA).
On the technique in general: The SRB assay estimates cell density from bound dye.

In general, chromatographic logP refers to a lipophilicity value derived from retention on a column. Higher therefore signals a more lipophilic compound. By IC50 is commonly meant the point on the concentration scale where inhibition reaches its midpoint. `COc1cccc(C(=O)/C=C/c2cccc(B(O)O)c2)c1` [Compound 5, (E)-(3-(3-(3-methoxyphenyl)-3-oxoprop-1-en-1-yl)phenyl)boronic acid]: the permeability class result in data set [1] is reported as “high passive permeability”. The Papp at 5 h, 10 μM in data set [1] (donor pH 6.5, acceptor pH 7.4, 5 h, 37 °C, read-out: PAMPA (Mean Pe)) amounted to 17.5 ×10⁻⁶ cm/s. The “reduction of IL-8 levels” value in data set [2] is recorded as “effectively reduced cytokine levels”. Also, the “reduction of IL-1β levels” value in data set [3] is listed as “comparable efficacy in reducing cytokine levels relative to LPS-stimulated cells”. For the same compound, in data set [4], the chromatographic logP was determined as 2.92. Besides, the IC50 in data set [5] turned out to be 2.16 ± 0.31 µM.
